According to patent US20250333389A1, “PHARMACEUTICAL FOR THE INHIBITION OF CELLULAR PROTON PUMPS” (AquaRemedi Pharmaceuticals INC, priority 2024, published 2025):
Entries after “also recorded” stand apart in the source; their conditions may differ. Like-named read-outs stand apart in the source and are kept apart here.

Columns and labels:
human Hv1 channel [1] = molecular target: T1, human Hv1 channel (Homo sapiens, UniProt Q96D96); test: Whole cell patch clamp recording of Hv1 proton currents in transfected HEK293T cells; assay type: cell-based; details: calculated as Ki=Koff/Kon, read-out: inhibition constant Ki for Hv1 channels
T1 construct: expressed in transfected cells; host or cells: HEK293T
T1 sequence (Q96D96 1-273): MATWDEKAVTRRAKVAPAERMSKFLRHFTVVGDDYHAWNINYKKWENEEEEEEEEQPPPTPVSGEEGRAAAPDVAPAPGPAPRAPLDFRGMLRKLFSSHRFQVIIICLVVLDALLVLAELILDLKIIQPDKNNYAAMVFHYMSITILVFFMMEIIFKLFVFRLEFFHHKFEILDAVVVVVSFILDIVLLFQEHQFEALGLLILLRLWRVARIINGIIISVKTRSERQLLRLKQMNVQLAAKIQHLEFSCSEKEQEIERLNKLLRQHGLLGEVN

human Hv1 channel [2] = molecular target: T1, human Hv1 channel; test: as above; assay type: cell-based; details: for V1/2 shift of G-V curve: Boltzmann fit; for pore blocker strength for Hv1 channel (in words): conclusion from patch clamp data
Text: For conducting experiments, we used HEK293T cells. The HEK293T cells were purchased from American Type Culture Collection (ATCC). For cell culture, the HEK293T cells were maintained in ATTC's Dulbecco's Modified Eagle's Medium (DMEM) supplemented with a 10% fetal bovine serum (FBS 10%) and 1% penicillin and streptomycin. Plasmids were transfected into cells using a transfection reagent, Lipofectamine™ 2000 according to the manufacturer's instructions (Life Technologies). Experiments were performed 24-48 hours post-transfection.
For the experimental studies, similar techniques as utilized by Zhao et. al is used in this invention. (Zhao et al., Role of human Hv1 channels in sperm capacitation and white blood cell respiratory burst established by a designed peptide inhibitor, Proc Natl Acad Sci USA. 2018, PMID: 30478045, PMCID: PMC6294887).
In the present invention, a Whole Cell patch clamp technique was utilized to study the Hv1 proton currents. The proton currents passed by Hv1 were recorded in Whole Cell mode using an Axon™ Axopatch™ 200B microelectrode amplifier. Stimulation and data collection were performed by a high-resolution, low-noise digitizer, Digidata 1322A, manufactured by Axon Instruments, Inc.) and Axon™ pCLAMP™ 10 Electrophysiology Data Acquisition & Analysis Software (released by Molecular Devices). Cells were perfused with an external bath solution comprised of a zwitterionic sulfonic acid buffering agent (100 mM HEPES), 100 mM NaCl, and 10 mM glucose at pH 7.5. During the patch clamp recording, the patch pipettes with a resistance between 3 and 5 MΩ were filled with 100 mM Bis-Tris buffer, 100 mM NaCl, and 10 mM glucose at pH 6.0. The sampling frequency was 10 kHz and the signals were filtered at 1 KHz.
Fractional unblocked current was assessed at the end of the test pulse.
Dose-response curves (the time course for block and unblock of Hv1 as shown in FIG. 9) show the fractional unblocked current, Icompound/Icontrol, versus toxin concentration. The curves were fit to the Hill equation, Fun=(1+([compound]/Ki)h)−1), wherein the [compound] is the effective compound concentration, Fun is the fraction of unblocked current at equilibrium. Ki is the inhibition constant and h is the Hill coefficient.

[3] = 100 nM compound, at −20 mV, holding −60 mV

Row | Structure (SMILES) | Ki (human Hv1 channel [1]) | V1/2 shift of G-V curve (human Hv1 channel [2]; 10 μM compound, shift to the left) | block of Hv1 current (human Hv1 channel [2]; 10 μM compound, at −20 mV, holding −60 mV) | pore blocker strength for Hv1 channel (in words) (human Hv1 channel [2]) | Ki (human Hv1 channel [1]; I-V plot, −20 mV) | time course of block (washin) (human Hv1 channel [2]; 100 nM applied to Hv1 channels) | V1/2 shift of G-V curve (human Hv1 channel [2]; 100 nM compound) | block of Hv1 channel current (human Hv1 channel [2]; [3]) | time course of unblock (washout) (human Hv1 channel [2]; washed away with isotonic saline)
1 | C=C[C@@H]1CS[C@H](c2ccccc2)N1C(=O)OC(C)(C)C [Original Compound, (2R,4R)-tert-butyl 2Phenyl-4-vinylthiazolidine-3-carboxylate] | 3 µM | ~15 mV | 20% | weak pore blocker |  |  |  |  | 
2 | CC(C)(C)OC(=O)N1[C@H](CO)CS[C@@H]1c1ccccc1 [S1, (2R,4R)-tert-butyl 4-(hydroxymethyl)-2-Phenylthiazolidine-3-carboxylate] |  |  |  | strong nano-molar pore blocker; also recorded: relatively strong pore blocker | 0.003 µM | blocks the channel current immediately | about 41 mV | 92% | the current resumes
3 | O=C(O)[C@@H]1CS[C@H](c2ccccc2)N1 [S2, (2R,4R)-2-phenylthiazolidine-4-carboxylic acid] |  |  |  | strong nano-molar pore blocker | 0.02 µM |  | about 35 mV | 85% | 
